Source: US20090209460A1, “COMPOSITIONS AND METHODS FOR TREATING OBESITY AND RELATED METABOLIC DISORDERS” (Amylin Pharmaceuticals, Inc., priority 2005, published 2009)
Residues, ends and D or L forms follow the SMILES beside them.

Tests used:
NIH/Swiss mice = experiment: acute food intake assay, lean overnight-fasted NIH/Swiss mice, intraperitoneal injection; assay type: in vivo, mouse; details: mouse assay, dose of 200 mg/kg, measured at 60 minutes
In short: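 Overnight-fasted lean female NIH/Swiss mice (8-24 weeks, group housed) received vehicle or peptide intraperitoneally at time 0, then pre-weighed standard chow. Food consumed was weighed at 30, 60 and 120 min and expressed as % change versus control.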

[1] = brush border membrane (BBM) stability assay; assay type: in vitro ADME, human; details: brush border membrane extract (e.g. kidney); percent compound remaining after a 5 hour incubation, human brush border membrane assay; read-out: hBBM
In short: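 Peptides digested up to 5 h at 37 °C with human brush border membrane extract (e.g. kidney). Timepoints quenched with 50% ACN, 1% FA, centrifuged, intact peptide quantified by selected-ion mass spectrometry. Expressed as percent stable.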

[2] = tested on: mice with diet induced obesity (mouse DIO); experiment: cumulative food intake in mouse DIO after IP injection (FIGS. 6 and 7); assay type: in vivo; details: injected IP at t=0; measured at 30, 60, 120 and 180 min
Procedure: The activities of the following compounds are shown: A, [MimicB36] FN38; B, [His37] FN38; C,
[His35] FN38; D, [Phe33] FN38; E, [Val33] FN38; F, Des-(Ser6,Lys7,Thr8,Gln9) FN38; G, Des-Val16,Val17-FN38; H, [Phe31] FN38; I, Des-(Val16,Val17,Phe24,Ala25,Ser26,Gln27) FN38; J, Des-(Phe1,Leu2,Phe3,His4)FN38; and K, Des-(Phe24,Ala25,Ser26,Gln27)-FN38. […] Points represent mean±sd of n=4 cages (3 mice/cage). Peptide was injected IP at t=0. Food was introduced immediately after injection and amount consumed measured at t=30, 60, 120, and 180 min. In the figure, * p<0.05 vs. vehicle control; ANOVA, Dunnett's test.

Row | SMILES | Food Intake Inhibition (NIH/Swiss mice) [%] | remaining at 5 h [1] [%] | cumulative food intake in mouse DIO (FIGS. 6A, 6B, 7A, 7B) [2]
1 | CC(C)C[C@H](NC(=O)[C@H](CCCCN)NC(=O)[C@H](CCC(N)=O)NC(=O)[C@@H](NC(=O)[C@H](CCCCN)NC(=O)[C@H](CO)NC(=O)[C@H](Cc1ccc(O)cc1)NC(=O)[C@H](Cc1c[nH]cn1)NC(=O)[C@H](Cc1ccccc1)NC(=O)[C@H](CC(C)C)NC(=O)[C@@H](N)Cc1ccccc1)[C@@H](C)O)C(=O)NCC(=O)N[C@@H](CCCCN)C(=O)N[C@@H](CO)C(=O)N[C@@H](CC(N)=O)C(=O)N[C@@H](CO)C(=O)N[C@@H](CCCNC(=N)N)C(=O)NCC(=O)N[C@@H](Cc1ccc(O)cc1)C(=O)N[C@@H](Cc1ccccc1)C(=O)N[C@@H](CC(C)C)C(=O)N[C@@H](Cc1ccccc1)C(=O)N[C@@H](CCCNC(=N)N)C(=O)N1CCC[C@H]1C(=O)N[C@@H](CCCNC(=N)N)C(=O)N[C@@H](CC(N)=O)C(N)=O [Des-(Val16-Gln27)FN38] (H-FLFHYSKTQKLGKSNSRGYFLFRPRN-NH2; N-terminus assumed) | −42 | 80 | reduction of cumulative food intake
2 | CC(C)C[C@H](NC(=O)[C@H](CCCCN)NC(=O)[C@H](CCC(N)=O)NC(=O)[C@@H](NC(=O)[C@H](CCCCN)NC(=O)[C@H](CO)NC(=O)[C@H](Cc1ccc(O)cc1)NC(=O)[C@H](Cc1c[nH]cn1)NC(=O)[C@H](Cc1ccccc1)NC(=O)[C@H](CC(C)C)NC(=O)[C@@H](N)Cc1ccccc1)[C@@H](C)O)C(=O)NCC(=O)N[C@@H](CCCCN)C(=O)N[C@@H](CO)C(=O)N[C@@H](CC(N)=O)C(=O)N[C@@H](CCC(=O)O)C(=O)N[C@@H](CCC(=O)O)C(=O)N[C@@H](CC(C)C)C(=O)N[C@@H](CCC(N)=O)C(=O)N[C@@H](CO)C(=O)N1CCC[C@H]1C(=O)N[C@@H](CO)C(=O)N[C@@H](CCCNC(=N)N)C(=O)NCC(=O)N[C@@H](Cc1ccc(O)cc1)C(=O)N[C@@H](Cc1ccccc1)C(=O)N[C@@H](CC(C)C)C(=O)N[C@@H](Cc1ccccc1)C(=O)N[C@@H](CCCCN)C(=O)N1CCC[C@H]1C(=O)N[C@@H](CCCNC(=N)N)C(=O)N[C@@H](CC(N)=O)C(N)=O [Des-(Val16,Val17,Phe24-Gln27)[K35]FN38] (H-FLFHYSKTQKLGKSNEELQSPSRGYFLFKPRN-NH2; N-terminus assumed) | −54 | 76 | reduction of cumulative food intake
3 | CC(C)C[C@H](NC(=O)[C@H](CCCCN)NC(=O)[C@H](CCC(N)=O)NC(=O)[C@@H](NC(=O)[C@H](CCCCN)NC(=O)[C@H](CO)NC(=O)[C@H](Cc1ccc(O)cc1)NC(=O)[C@H](Cc1c[nH]cn1)NC(=O)[C@H](Cc1ccccc1)NC(=O)[C@H](CC(C)C)NC(=O)[C@@H](N)Cc1ccccc1)[C@@H](C)O)C(=O)NCC(=O)N[C@@H](CCCCN)C(=O)N[C@@H](CO)C(=O)N[C@@H](CC(N)=O)C(=O)N[C@H](C(=O)N[C@H](C(=O)N[C@@H](CCC(=O)O)C(=O)N[C@@H](CCC(=O)O)C(=O)N[C@@H](CC(C)C)C(=O)N[C@@H](CCC(N)=O)C(=O)N[C@@H](CO)C(=O)N1CCC[C@H]1C(=O)N[C@@H](Cc1ccccc1)C(=O)N[C@@H](C)C(=O)N[C@@H](CO)C(=O)N[C@@H](CCC(N)=O)C(=O)N[C@@H](CO)C(=O)N[C@@H](CCCNC(=N)N)C(=O)NCC(=O)N[C@@H](Cc1ccc(O)cc1)C(=O)N[C@@H](Cc1ccccc1)C(=O)N[C@@H](CC(C)C)C(=O)N[C@@H](Cc1ccccc1)C(=O)N[C@@H](Cc1c[nH]cn1)C(=O)N1CCC[C@H]1C(=O)N[C@@H](CCCNC(=N)N)C(=O)N[C@@H](CC(N)=O)C(N)=O)C(C)C)C(C)C [Compound C] (H-FLFHYSKTQKLGKSNVVEELQSPFASQSRGYFLFHPRN-NH2; N-terminus assumed) |  |  | either not active or weakly active
